# Test results from ChEMBL document CHEMBL1201862, “PubChem BioAssay data set” (2004).
# The source made the active and inactive calls.
# Assays:
# [1] = target: Peroxisome proliferator-activated receptor gamma/Nuclear receptor coactivator 3 (Homo sapiens, UniProt P37231); experiment: TR-FRET dose response biochemical High Throughput Screening assay for agonists of the steroid receptor coactivator 3 (SRC-3) recruitment by the peroxisome proliferator-activated receptor gamma (PPAR gamma): non-selective agonists. [Related pubchem assays: 1301 (Confirmation screen.), 1048 (Primary screen.)]; assay type: functional
# [2] = target: Peroxisome proliferator-activated receptor gamma/Nuclear receptor coactivator 1 (Homo sapiens, UniProt P37231); experiment: TR-FRET dose response biochemical High Throughput Screening assay for agonists of the steroid receptor coactivator 1 (SRC-1) recruitment by the peroxisome proliferator-activated receptor gamma (PPAR gamma): non-selective agonists. [Related pubchem assays (depositor defined):AID1300, AID1808, AID504735, AID631]; assay type: protein assay
# Sequence of Peroxisome proliferator-activated receptor gamma/Nuclear receptor coactivator 1 (P37231 whole entry): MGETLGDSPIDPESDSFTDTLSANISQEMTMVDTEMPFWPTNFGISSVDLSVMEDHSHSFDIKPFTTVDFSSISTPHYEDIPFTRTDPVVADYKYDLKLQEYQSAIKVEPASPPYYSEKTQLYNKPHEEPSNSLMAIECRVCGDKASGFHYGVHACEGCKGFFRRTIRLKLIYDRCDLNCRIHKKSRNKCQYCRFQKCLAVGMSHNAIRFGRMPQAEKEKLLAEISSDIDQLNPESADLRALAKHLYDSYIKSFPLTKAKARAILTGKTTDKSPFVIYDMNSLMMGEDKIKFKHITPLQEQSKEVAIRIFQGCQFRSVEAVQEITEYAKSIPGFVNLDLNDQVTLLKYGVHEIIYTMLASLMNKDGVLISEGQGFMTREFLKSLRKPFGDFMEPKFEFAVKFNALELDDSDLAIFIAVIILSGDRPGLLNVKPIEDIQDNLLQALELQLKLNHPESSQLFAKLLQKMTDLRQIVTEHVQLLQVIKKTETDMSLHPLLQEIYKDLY
# Sequence of Peroxisome proliferator-activated receptor gamma/Nuclear receptor coactivator 1 (Q15788 whole entry, further chain): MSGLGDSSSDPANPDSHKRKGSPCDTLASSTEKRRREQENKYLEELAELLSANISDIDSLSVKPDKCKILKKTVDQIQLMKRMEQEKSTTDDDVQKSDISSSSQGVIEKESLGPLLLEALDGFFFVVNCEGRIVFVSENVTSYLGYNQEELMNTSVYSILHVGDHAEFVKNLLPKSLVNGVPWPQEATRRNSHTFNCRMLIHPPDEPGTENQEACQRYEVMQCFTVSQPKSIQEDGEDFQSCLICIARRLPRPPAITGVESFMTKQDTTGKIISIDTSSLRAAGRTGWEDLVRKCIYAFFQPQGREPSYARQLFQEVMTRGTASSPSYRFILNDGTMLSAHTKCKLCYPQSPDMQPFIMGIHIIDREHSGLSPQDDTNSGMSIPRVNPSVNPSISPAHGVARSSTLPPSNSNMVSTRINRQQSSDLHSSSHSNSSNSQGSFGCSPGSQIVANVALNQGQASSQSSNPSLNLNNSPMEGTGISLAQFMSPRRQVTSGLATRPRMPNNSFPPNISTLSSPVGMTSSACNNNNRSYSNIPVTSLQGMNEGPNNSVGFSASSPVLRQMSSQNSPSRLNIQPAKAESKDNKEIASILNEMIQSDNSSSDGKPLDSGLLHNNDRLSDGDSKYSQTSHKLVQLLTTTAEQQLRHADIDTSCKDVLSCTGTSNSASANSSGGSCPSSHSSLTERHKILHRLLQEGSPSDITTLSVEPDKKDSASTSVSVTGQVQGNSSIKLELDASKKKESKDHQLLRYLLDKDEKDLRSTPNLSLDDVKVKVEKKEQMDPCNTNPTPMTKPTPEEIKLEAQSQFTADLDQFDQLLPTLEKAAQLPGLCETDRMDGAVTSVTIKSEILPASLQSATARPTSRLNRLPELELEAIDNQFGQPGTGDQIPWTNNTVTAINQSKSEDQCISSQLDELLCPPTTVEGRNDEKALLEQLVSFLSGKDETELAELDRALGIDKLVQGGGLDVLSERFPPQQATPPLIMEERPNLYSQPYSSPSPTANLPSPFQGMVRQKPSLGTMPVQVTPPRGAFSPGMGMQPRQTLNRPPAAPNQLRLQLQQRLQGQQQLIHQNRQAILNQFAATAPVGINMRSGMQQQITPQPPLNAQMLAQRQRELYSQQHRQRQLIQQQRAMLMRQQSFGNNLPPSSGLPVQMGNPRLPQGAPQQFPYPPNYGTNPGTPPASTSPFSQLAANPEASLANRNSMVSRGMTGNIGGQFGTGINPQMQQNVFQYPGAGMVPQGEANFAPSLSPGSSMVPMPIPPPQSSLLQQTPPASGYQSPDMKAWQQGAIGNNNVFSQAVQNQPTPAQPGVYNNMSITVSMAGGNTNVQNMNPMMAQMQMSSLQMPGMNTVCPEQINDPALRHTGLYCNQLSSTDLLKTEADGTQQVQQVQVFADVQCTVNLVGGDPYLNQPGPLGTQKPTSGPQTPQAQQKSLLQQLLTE
# [3] = target: Peroxisome proliferator-activated receptor gamma/Nuclear receptor coactivator 2 (Homo sapiens, UniProt P37231); experiment: TR-FRET dose response biochemical High Throughput Screening assay for agonists of the steroid receptor coactivator 2 (SRC-2) recruitment by the peroxisome proliferator-activated receptor gamma (PPAR gamma): non-selective agonists. [Related pubchem assays: 1297, 1032 ]; assay type: functional
# Sequence of Peroxisome proliferator-activated receptor gamma/Nuclear receptor coactivator 2 (P37231 whole entry): as the sequence (P37231 whole entry) above
# Sequence of Peroxisome proliferator-activated receptor gamma/Nuclear receptor coactivator 2 (Q15596 whole entry, further chain): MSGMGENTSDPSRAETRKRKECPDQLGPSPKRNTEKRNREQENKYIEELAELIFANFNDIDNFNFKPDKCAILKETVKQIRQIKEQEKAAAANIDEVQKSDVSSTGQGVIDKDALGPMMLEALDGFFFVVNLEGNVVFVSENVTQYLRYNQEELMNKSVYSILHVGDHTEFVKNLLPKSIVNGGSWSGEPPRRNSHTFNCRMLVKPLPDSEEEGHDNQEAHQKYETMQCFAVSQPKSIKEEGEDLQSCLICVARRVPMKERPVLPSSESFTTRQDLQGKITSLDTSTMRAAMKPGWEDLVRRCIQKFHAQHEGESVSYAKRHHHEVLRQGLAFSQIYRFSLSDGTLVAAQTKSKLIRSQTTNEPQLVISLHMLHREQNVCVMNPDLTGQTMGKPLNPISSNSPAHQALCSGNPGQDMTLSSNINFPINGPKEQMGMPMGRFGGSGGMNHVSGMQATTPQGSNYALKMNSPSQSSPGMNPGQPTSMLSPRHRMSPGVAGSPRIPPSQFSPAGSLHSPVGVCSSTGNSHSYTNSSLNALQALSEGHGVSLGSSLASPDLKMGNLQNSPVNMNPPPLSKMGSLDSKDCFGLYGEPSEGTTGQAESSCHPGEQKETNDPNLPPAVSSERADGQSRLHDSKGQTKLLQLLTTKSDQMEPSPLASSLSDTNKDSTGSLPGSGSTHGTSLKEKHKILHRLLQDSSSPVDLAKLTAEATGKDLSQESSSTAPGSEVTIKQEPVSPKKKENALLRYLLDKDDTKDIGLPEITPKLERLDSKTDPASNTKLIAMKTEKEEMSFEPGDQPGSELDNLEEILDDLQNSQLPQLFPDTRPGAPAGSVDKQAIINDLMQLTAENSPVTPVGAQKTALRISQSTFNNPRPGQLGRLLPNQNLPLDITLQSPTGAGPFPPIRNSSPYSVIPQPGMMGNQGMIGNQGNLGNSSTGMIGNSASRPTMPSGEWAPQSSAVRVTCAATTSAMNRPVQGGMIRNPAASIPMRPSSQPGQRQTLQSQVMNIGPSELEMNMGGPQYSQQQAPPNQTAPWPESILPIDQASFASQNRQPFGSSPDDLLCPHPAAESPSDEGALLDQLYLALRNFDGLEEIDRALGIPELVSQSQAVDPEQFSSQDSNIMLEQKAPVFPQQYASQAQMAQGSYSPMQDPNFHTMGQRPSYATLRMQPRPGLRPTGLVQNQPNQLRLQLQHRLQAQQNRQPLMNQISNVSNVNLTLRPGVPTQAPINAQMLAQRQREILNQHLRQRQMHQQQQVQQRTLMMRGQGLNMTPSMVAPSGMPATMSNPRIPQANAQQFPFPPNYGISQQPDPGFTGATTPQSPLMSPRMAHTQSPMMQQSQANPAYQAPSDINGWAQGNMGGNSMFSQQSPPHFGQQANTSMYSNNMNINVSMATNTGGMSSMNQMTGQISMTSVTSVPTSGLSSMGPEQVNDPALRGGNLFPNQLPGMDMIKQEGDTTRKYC
# Cytochrome P450 3A4 = Cytochrome P450 3A4 (Homo sapiens, UniProt P08684);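 note: CYP3A4 tested as one member of a cytochrome P450 panel screen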
# Sequence of Cytochrome P450 3A4 (P08684 whole entry): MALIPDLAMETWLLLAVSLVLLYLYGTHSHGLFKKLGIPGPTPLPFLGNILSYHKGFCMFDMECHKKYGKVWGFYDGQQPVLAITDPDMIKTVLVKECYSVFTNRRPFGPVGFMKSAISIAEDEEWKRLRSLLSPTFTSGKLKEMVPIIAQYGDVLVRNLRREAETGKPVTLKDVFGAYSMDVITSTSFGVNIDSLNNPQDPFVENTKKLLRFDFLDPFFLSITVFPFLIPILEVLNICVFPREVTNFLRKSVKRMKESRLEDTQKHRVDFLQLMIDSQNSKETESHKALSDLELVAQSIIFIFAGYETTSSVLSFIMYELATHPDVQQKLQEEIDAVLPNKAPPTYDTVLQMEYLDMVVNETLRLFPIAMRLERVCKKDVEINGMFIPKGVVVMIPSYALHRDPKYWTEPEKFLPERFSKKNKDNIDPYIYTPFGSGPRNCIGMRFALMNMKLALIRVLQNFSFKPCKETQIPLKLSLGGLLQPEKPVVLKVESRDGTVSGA
# [4] = Trypanosoma cruzi growth suppression in host cells – NIH3T3 host cells, beta-gal luminescence, confirmation (AID 2044); assay type: functional, cell-based;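 note: intracellular parasites grown in NIH/3T3 mouse fibroblasts as host cells; luminescent beta-galactosidase reporter signal from transgenic T. cruzi replicating inside host cells; inhibitors lower the luminescence signal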
# [5] = NIH3T3 cell viability loss – ATP luminescence, mouse fibroblasts, counter-screen, dose response (AID 2010); assay type: functional, cell-based;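 note: cells exposed to compound for about 90 hours before reading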
# [6] = Luminescence Cell-Based Dose Retest to Confirm Inhibitors of Cancer Stem Cells. [Related pubchem assays (depositor defined):AID2717, AID2721]; assay type: functional; details: Homo sapiens
# H9c2 = experiment: cells; assay type: functional, cell-based; details: Rattus norvegicus, H9c2, Myocardium;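 note: confirmatory concentration-response retest of ultra-high-throughput screening hits for modulation of myocardial damage; cell death induced by hydrogen peroxide oxidative stress; compound pretreatment for 60 min then peroxide exposure for 2 h; potency is for protecting the cells against peroxide damage rather than for killing them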
# HEK293 = experiment: EBV LMP1 TES2 canonical NF-kB signalling blockers – cell-based, HEK293, luciferase, cherry-pick, dose response (AID 588343); assay type: functional; details: Homo sapiens
# [7] = target: T1, Microphthalmia-associated transcription factor (Homo sapiens, UniProt O75030); experiment: reducers of TRPM1 reporter luminescence, concentration series – cell-based, SK-MEL-5, cherry-picked, set 3, MITF inhibitor project, dose response (AID 493073); assay type: functional;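 note: SK-MEL-5 melanoma cells with luciferase driven by the MITF target TRPM1 promoter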
# T1 sequence (O75030 whole entry): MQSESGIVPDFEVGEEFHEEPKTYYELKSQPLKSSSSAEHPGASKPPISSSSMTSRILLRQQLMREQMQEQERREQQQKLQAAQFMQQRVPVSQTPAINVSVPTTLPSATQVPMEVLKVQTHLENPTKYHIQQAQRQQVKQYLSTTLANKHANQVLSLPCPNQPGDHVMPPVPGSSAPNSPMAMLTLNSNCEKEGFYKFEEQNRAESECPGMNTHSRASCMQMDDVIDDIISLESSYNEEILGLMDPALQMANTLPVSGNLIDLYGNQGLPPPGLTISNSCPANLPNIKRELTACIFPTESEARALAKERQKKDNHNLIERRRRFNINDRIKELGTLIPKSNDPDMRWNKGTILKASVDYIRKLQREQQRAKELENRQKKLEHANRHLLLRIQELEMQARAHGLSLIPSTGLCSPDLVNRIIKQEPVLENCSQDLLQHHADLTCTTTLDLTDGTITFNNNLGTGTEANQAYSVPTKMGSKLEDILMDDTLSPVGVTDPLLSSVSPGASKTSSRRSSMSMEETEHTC
# Cytochrome P450 2C9 = Cytochrome P450 2C9 (Homo sapiens, UniProt P11712)
# Sequence of Cytochrome P450 2C9 (P11712 whole entry): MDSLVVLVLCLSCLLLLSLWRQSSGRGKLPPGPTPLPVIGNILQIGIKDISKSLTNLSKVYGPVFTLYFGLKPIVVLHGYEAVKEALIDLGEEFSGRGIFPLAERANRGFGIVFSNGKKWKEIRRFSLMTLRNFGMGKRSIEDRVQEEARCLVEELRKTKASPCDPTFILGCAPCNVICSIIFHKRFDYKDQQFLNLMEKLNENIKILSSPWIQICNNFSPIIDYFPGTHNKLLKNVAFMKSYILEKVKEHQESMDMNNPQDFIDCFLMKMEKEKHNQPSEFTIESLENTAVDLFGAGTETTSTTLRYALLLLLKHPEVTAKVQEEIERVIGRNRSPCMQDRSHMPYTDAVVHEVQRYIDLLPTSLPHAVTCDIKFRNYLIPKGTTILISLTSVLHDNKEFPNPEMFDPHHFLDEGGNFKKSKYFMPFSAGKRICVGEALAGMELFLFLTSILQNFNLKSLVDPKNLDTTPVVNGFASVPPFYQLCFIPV
# Protein RecA = target: T2, Protein RecA (Mycobacterium tuberculosis, UniProt P9WHJ3); experiment: Fluorescence Cell-Free Homogeneous Dose Retest to Identify Inhibitors of RecA-Intein Splicing Activity. [Related pubchem assays (depositor defined):AID2097, AID2223, AID489010, AID492950]; assay type: functional
# T2 sequence (P9WHJ3 whole entry): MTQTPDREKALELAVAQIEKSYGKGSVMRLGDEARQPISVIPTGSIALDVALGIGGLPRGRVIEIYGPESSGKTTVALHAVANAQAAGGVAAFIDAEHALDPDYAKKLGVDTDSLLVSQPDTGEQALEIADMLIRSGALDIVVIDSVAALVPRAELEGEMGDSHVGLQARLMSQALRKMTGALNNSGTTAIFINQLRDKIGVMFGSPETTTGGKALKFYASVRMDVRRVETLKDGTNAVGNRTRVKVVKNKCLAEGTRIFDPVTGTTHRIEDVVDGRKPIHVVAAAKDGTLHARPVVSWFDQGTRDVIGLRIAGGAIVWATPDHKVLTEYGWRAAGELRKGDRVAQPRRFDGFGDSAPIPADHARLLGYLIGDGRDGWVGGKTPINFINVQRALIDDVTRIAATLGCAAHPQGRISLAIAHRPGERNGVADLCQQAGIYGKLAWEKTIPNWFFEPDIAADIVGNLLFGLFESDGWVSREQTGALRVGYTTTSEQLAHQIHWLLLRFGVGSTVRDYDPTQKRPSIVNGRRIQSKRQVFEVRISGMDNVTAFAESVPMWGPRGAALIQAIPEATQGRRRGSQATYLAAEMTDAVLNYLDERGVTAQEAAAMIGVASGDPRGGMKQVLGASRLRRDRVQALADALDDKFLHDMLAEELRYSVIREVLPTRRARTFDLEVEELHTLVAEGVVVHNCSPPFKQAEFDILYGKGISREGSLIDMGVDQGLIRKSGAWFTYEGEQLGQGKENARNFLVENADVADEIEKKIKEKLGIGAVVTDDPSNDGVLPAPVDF
# [8] = target: T3, Replicative DNA helicase DnaB (Mycobacterium tuberculosis, UniProt P9WMR3); experiment: DnaB intein splicing inhibitors, dose response, biochemical, cell-free fluorescence (AID 449749); assay type: functional
# T3 sequence (P9WMR3 whole entry): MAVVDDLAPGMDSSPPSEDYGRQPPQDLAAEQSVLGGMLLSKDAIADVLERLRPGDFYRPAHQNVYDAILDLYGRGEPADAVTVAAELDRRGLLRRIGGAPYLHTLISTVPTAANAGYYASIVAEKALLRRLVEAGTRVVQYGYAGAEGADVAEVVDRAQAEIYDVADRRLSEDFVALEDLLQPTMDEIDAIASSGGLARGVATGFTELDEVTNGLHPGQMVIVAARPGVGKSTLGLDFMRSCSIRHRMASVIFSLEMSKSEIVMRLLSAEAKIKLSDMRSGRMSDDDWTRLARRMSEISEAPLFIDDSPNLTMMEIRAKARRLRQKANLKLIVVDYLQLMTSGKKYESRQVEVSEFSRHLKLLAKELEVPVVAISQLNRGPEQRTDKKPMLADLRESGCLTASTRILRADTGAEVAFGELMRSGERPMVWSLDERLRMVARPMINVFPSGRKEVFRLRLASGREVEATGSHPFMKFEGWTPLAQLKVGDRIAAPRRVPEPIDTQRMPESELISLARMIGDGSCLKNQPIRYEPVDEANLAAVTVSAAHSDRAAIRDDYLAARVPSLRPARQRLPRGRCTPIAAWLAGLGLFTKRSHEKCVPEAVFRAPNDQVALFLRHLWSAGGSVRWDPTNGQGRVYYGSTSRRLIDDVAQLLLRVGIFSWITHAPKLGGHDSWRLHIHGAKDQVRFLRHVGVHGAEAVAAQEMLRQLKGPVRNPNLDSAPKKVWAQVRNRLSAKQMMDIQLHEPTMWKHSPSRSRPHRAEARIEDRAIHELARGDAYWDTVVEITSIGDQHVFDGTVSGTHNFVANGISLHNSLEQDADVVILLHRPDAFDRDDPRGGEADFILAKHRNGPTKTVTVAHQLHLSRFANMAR
# Fatty acid synthase [9] = target: T4, Fatty acid synthase (Homo sapiens, UniProt P49327); experiment: inhibition of human FAS-TE enzyme activity – biochemical, kinetic fluorescence intensity, dose response (AID 624326); assay type: functional;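 note: rate of fluorescence rise from hydrolysis of a fluorogenic O-methyl fluorescein ester substrate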
# Fatty acid synthase [10] = target: T4, Fatty acid synthase; experiment: inhibition of human FAS-TE enzyme activity – biochemical, endpoint fluorescence intensity, uHTS hits, dose response (AID 624327); assay type: functional;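 note: fluorescence from hydrolysis of an O-methyl fluorescein acyl ester substrate by the enzyme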
# HeLa = experiment: ATP-based viability loss in HeLa cells – cell-based, CellTiter-Glo luminescence, cherry-pick samples, cytotoxicity control for MITF activator project, dose response (AID 540259); assay type: functional; details: Homo sapiens
# [11] = target: T5, Rac GTPase-activating protein 1 (Homo sapiens, UniProt Q9H0H5); experiment: blockers of MgcRacGAP-driven Rac1 GTP hydrolysis – biochemical, ADP Hunter fluorescence, primary and confirmatory, confirmation (AID 624330); assay type: functional
# T5 sequence (Q9H0H5 whole entry): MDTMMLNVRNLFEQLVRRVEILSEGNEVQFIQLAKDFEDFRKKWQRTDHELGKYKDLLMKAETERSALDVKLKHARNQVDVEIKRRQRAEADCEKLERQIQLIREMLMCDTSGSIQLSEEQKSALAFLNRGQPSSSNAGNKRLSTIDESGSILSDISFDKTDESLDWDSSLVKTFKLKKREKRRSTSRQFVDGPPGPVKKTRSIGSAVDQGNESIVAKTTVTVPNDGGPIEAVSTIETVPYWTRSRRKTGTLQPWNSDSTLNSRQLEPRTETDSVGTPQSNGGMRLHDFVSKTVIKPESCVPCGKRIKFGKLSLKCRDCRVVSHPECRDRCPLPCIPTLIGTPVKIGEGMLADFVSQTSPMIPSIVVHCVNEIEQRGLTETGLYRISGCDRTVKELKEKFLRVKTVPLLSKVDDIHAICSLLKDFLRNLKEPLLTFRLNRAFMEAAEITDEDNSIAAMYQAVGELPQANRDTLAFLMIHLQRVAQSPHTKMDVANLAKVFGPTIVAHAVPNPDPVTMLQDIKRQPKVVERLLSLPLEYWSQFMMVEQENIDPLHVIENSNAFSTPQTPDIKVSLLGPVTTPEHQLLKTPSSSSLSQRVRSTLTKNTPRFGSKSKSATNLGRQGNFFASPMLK
# [12] = target: Eukaryotic translation initiation factor 4E (Mus musculus, UniProt P63073); experiment: blockers of eIF4G binding by eIF4E – biochemical, TR-FRET, dose response (AID 855); assay type: functional;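 note: potency for disrupting eIF4E binding to eIF4GI seen as loss of FRET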
# H4 = experiment: Luminescence Cell-Based Dose Response HTS to Identify Activators of 5'UTR Stem-Loop Driven Prion Protein mRNA Translation in H4 Neuroglioblastoma Cells. [Related pubchem assays: 1829 (Project Summary), 1814 (Primary HTS)]; assay type: functional; details: Homo sapiens
# [13] = Luminescence Cell-Based Dose Confirmation HTS to Identify Activators of 5'UTR Stem-Loop Driven Alpha-Synuclein mRNA Translation in H4 Neuroglioblastoma Cells. [Related pubchem assays: 1829 (Project Summary), 1814 (Primary HTS)]; assay type: functional
# [14] = Luminescence Cell-Based Dose Response HTS to Identify Activators of Luciferase Translation or Activity in H4 […] Cells. [Related pubchem assays: 1829 (Project Summary), 1814 (Primary HTS)]; assay type: functional
# [15] = target: Glucose-6-phosphate 1-dehydrogenase (Homo sapiens, UniProt P11413); experiment: inhibition of Homo sapiens G6PD, dose series – biochemical, fluorescence, selectivity assay for P. falciparum G6PD inhibitor project, dose response (AID 504792); assay type: functional
compound,measurement,setting,value
COc1cc2c(cc1OC)C1=NC(=O)CN1C(SCc1ccccc1C)=N2,EC50,[1],> 79.4 µM (not active)
same,EC50,[2],> 79.4 µM (inactive)
same,EC50,[3],82.7 µM (not active)
Cc1cc(Cl)ccc1NC(=O)CN1CCC(C(O)(c2ccccc2)c2ccccc2)CC1,AC50,Cytochrome P450 3A4,inconclusive
Cl.OCCN1CCN(CCOc2cccc(Cl)c2)CC1,AC50,Cytochrome P450 3A4,inconclusive
same,EC50,[4],0.413 µM (active)
same,EC50,[5],> 60 µM (inconclusive)
CCOC(=O)c1c(NC(=O)C(c2ccccc2)c2ccccc2)sc2c1C1CCN2CC1.Cl,AC50,[6],1.09 µM (active)
same,AC50,Cytochrome P450 3A4,inconclusive
same,EC50,[4],1.86 µM (active)
same,EC50,[5],> 60 µM (not active)
COc1ccc(-c2oc3ncnc(NCCN4CCOCC4)c3c2-c2ccc(OC)cc2)cc1,IC50,H9c2,> 79 µM (inactive)
same,AC50,HEK293,9.19 µM (active)
Cc1ccc(-c2nnc(O)c3ccccc23)cc1S(=O)(=O)NCC1CCCO1 (centres undefined),IC50,H9c2,15.3 µM (active)
same,AC50,[7],53.2 µM (active)
COc1cccc(C(=O)CC(=O)C(=O)Nc2ccc(C)cc2Cl)c1,AC50,HEK293,35 µM (active)
O=c1c2c(-c3cccs3)csc2[nH]c(=S)n1-c1ccccc1,EC50,[1],> 79.4 µM (not active)
same,EC50,[2],12.8 µM (inactive)
same,AC50,Cytochrome P450 2C9,8.91 µM (inconclusive)
same,EC50,[3],11.6 µM (not active)
CC(=O)N(C1CC(C)C(C#N)(C#N)C1(C#N)C#N)N(C)C (centres undefined),EC50,Protein RecA,3.17 µM (active)
same,AC50,[8],1.68 µM (active)
same,IC50,Fatty acid synthase [9],6.1 µM (active)
same,IC50,Fatty acid synthase [10],8.68 µM (active)
same,AC50,[7],9.24 µM (active)
Cc1cc(C(=O)OCC(=O)c2ccc(Br)s2)c(C)o1,EC50,[1],> 79.4 µM (not active)
same,EC50,[2],> 79.4 µM (inactive)
same,EC50,[3],14.6 µM (not active)
CC(C)(C)C(=O)c1cnc(Nc2ccccc2Cl)s1,AC50,HeLa,121 µM (active)
CC1CCN(C(=O)/C(=C\c2cccs2)NC(=O)c2ccccc2)CC1,AC50,HEK293,> 350 µM (inactive)
N#Cc1cc(C#N)c(N2CCN(c3ccccn3)CC2)nc1N,AC50,HeLa,31.7 µM (active)
O=C1CCCc2ccccc2N1Cc1cccc(Cl)c1,AC50,Cytochrome P450 3A4,inconclusive
COc1ccccc1CN1CCN(C(=O)c2ccncc2)CC1,IC50,[11],120 µM (active)
same,IC50,[12],> 64 µM (inactive)
CC(=O)c1sc(N/N=C/c2cccc(O)c2)nc1C,AC50,HeLa,77.2 µM (active)
same,EC50,H4,23.2 µM (active)
same,EC50,[13],6.61 µM (active)
same,EC50,[14],8.4 µM (active)
Cc1cc(SCC(=O)N/N=C/c2ccco2)nc2ccccc12,IC50,[15],57.4 µM (inactive)
